Assay results published in patent publication US8440724B2, “Inhibiting neurotransmitter reuptake” (Mayo Foundation for Medical Education and Research, priority 2008, dated 2013).
Read-outs that look alike come from different tables or passages of the source.

Legend:
[1] = target: human serotonin transporter (Homo sapiens, UniProt P31645); test: Inhibition of [3H]5-HT transport into HEK-293 cells expressing the human transporter
hSERT, hNET, hDAT = test: Human transporter binding: rank order and range of potency over the three transporters; conditions: for Potency (rank-order of potency of binding; S = hSERT, N = hNET, D = hDAT): from KD values; for Potency Range (difference between most potent and least potent binding): ratio of KD over hSERT, hNET, hDAT
Source text: The program was modified to calculate the Hill coefficient (nH). Data are presented as geometric mean±S.E.M. of at least three independent experiments. One-component models and two-component models were compared using the root mean square error of each fit and the F test.

[2] = target: human norepinephrine transporter (Homo sapiens, UniProt P23975); test: Inhibition of [3H]NE transport into HEK-293 cells expressing the human transporter
Chain of human norepinephrine transporter (P23975 whole entry): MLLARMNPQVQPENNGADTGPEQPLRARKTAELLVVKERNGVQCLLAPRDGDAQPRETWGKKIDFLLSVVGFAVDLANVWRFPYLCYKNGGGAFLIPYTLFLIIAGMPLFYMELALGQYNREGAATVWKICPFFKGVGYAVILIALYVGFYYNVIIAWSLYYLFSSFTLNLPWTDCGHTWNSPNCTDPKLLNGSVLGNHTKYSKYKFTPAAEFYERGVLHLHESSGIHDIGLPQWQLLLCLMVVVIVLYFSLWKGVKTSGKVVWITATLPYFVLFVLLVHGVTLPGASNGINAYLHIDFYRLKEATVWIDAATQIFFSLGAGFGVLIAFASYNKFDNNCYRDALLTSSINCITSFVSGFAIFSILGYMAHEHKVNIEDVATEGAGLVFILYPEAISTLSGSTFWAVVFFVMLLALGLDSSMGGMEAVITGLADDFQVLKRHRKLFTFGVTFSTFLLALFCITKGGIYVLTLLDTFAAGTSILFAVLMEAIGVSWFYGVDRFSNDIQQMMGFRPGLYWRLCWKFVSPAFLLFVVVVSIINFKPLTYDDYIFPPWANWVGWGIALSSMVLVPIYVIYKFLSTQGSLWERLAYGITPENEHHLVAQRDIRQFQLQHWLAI

[3] = tested on: rat 5-HT, NE and DA transport, synaptosomal preparations; test: Rat brain synaptosomal transport: rank order of potency; type: biochemical; conditions: from Ki values; S = 5HT, N = NE, D = DA
[4] = target: T1, human dopamine transporter (hDAT) (Homo sapiens, UniProt Q01959); test: Radioligand binding to cloned hDAT, [3H]WIN35428, HEK-293 cell membranes; conditions: for Binding at hDAT compared to PRC200-SS: in words
T1 construct: expressed in transfected cells; host or cells: HEK-293, stably transfected
T1 sequence (Q01959 whole entry): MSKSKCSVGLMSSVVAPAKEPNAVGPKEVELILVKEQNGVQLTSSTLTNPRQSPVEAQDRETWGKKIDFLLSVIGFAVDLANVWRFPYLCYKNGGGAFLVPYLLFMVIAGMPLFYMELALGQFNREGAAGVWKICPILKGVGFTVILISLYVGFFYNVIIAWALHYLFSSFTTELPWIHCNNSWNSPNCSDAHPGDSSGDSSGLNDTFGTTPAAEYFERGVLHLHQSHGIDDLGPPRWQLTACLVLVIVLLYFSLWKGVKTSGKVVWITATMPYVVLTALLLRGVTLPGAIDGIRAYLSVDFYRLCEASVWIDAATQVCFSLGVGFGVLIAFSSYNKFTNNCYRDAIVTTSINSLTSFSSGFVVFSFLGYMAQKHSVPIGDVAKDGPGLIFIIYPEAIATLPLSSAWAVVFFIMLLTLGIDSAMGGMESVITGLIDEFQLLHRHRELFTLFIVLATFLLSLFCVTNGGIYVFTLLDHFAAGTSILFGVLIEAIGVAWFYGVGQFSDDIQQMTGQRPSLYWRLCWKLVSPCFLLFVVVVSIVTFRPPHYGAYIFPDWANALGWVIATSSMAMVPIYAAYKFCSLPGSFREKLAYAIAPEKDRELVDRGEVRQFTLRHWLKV

[5] = target: T2, human serotonin transporter (hSERT) (Homo sapiens, UniProt P31645); test: Radioligand binding to cloned hSERT, [3H]citalopram, HEK-293 cell membranes; conditions: for Binding at hSERT compared to PRC200-SS: in words
T2 construct: expressed in transfected cells; host or cells: HEK-293, stably transfected
T2 sequence (P31645 whole entry): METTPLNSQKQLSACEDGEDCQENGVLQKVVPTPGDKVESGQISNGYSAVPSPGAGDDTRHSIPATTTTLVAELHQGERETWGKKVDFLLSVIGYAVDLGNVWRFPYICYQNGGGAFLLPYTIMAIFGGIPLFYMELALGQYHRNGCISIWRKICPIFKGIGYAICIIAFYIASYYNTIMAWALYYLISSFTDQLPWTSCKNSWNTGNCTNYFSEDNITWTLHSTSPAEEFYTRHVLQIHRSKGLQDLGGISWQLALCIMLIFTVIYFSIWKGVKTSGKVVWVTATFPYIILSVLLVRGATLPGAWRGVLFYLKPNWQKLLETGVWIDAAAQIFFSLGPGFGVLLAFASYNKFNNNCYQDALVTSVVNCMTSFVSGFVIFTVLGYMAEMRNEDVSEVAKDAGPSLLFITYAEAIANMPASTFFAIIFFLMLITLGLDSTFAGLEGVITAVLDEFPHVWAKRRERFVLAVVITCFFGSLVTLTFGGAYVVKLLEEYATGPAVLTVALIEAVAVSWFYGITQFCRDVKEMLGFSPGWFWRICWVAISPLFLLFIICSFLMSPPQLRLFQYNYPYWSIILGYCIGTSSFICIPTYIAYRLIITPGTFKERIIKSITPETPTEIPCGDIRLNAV

[6] = target: T3, rat norepinephrine transport, synaptosomal preparations (Rattus norvegicus, UniProt Q63380); test: Inhibition of [3H]NE reuptake in rat brain synaptosomes (occipital cortex); type: biochemical
T3 construct: from tissue; host or cells: rat occipital cortex synaptosomes (male Sprague-Dawley)
T3 sequence (Q63380 1-617): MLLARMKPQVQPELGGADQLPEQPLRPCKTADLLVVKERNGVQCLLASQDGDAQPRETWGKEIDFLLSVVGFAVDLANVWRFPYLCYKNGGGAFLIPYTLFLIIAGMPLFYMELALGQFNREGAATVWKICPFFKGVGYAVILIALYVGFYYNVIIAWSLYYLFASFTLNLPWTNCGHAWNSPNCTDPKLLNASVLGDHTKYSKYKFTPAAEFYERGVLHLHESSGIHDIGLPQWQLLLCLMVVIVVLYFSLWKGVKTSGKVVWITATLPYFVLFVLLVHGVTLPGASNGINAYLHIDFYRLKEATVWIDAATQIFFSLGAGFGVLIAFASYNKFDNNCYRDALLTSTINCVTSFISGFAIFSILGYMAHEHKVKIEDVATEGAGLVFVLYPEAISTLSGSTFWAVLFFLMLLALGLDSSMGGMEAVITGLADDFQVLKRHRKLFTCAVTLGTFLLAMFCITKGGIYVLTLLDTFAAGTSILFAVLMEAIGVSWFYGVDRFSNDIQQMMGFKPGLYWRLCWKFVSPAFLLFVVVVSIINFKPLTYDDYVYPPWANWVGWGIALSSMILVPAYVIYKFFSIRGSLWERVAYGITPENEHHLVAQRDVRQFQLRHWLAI
Experimental: (§1) The dissected tissues were separately homogenized in 20 volumes (cortical) or 40 volumes (striatal) of ice-cold, oxygenated HEPES buffer 0.32 M sucrose containing 11 mM glucose (pH 7.4) in a glass Potter-Elvehjem homogenizer with Teflon® pestle (8 strokes, 900 rpm). The homogenates were centrifuged at 1,000×g for 10 minutes. The resulting supernatant was decanted and further centrifuged at 20,000×g for 20 minutes at 4° C. […] The synaptosomal protein concentration was determined by using the BCA assay (Pierce Biotechnology Inc, Rockford, Ill.), according to the manufacturer's instructions. Synaptosomal protein (1.0-2.5 mg) was suspended in 1 mL oxygenated incubation buffer as defined above. Test amine compound was pre-incubated with the synaptosomal preparation for 30 minutes at 37° C. in a shaking water bath (80 oscillations/minute).

[7] = target: T4, rat serotonin transporter, synaptosomal preparations (Rattus norvegicus, UniProt P31652); test: Inhibition of [3H]5-HT reuptake in rat brain synaptosomes (frontal cortex); type: biochemical
T4 construct: from tissue; host or cells: rat frontal cortex synaptosomes (male Sprague-Dawley)
T4 sequence (P31652 whole entry): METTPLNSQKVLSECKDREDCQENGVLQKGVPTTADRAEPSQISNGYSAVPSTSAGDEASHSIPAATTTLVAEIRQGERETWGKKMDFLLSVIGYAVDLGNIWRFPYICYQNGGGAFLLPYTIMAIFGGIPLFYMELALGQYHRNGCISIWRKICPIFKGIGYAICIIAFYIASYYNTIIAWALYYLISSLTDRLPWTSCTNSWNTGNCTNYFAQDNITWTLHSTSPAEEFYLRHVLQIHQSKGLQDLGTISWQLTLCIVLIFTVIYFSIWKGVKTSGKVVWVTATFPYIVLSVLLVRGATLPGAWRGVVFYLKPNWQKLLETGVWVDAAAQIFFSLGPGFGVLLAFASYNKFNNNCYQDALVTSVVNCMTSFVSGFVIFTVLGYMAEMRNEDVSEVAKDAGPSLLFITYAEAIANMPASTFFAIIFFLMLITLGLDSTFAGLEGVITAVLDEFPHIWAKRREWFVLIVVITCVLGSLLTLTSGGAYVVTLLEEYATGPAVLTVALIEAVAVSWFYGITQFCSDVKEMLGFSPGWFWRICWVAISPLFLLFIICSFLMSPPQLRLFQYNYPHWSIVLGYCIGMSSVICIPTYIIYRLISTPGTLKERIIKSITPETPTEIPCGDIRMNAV
Experimental: as §1

[8] = target: human dopamine transporter (Homo sapiens, UniProt Q01959); test: Inhibition of [3H]DA transport into HEK-293 cells expressing the human transporter
Chain of human dopamine transporter (Q01959 whole entry): as the sequence (Q01959 whole entry) above

[9] = Geometric Mean ± SEM, HCl salts, read-out: Equilibrium Dissociation Constant (KD) for Transporter Binding, hDAT (D)
[10] = Geometric Mean ± SEM, HCl salts, read-out: Equilibrium Dissociation Constant (KD) for Transporter Binding, hSERT (S)
[11] = Geometric Mean ± SEM, rat brain synaptosomes, read-out: Inhibitor Constant (Ki), NE transport
[12] = Geometric Mean ± SEM, rat brain synaptosomes, read-out: Inhibitor Constant (Ki), 5HT transport

Chain of human serotonin transporter (P31645 whole entry): as the sequence (P31645 whole entry) above

SMILES	Ki [1]	Potency (rank-order of potency of binding; S = hSERT, N = hNET, D = hDAT) (hSERT, hNET, hDAT)	Potency Range (difference between most potent and least potent binding) (hSERT, hNET, hDAT)	Ki [2]	Potency (rank order, transport into rat brain synaptosomal preparations) [3]	Kd [4]	Kd [5]	Binding at hSERT compared to PRC200-SS [5]	Ki [6]	Ki [7]	Ki [8]	Kd [4, 9]	Kd [5, 10]	Ki [6, 11]	Ki [7, 12]	Binding at hDAT compared to PRC200-SS [4]	Potency (rank-order of potency of binding; S = hSERT, N = hNET, D = hDAT) (hSERT, hNET, hDAT; listed as MCJ001-F—SR)	Occupancy of hDAT binding sites ([4]; when the compound occupies 95% of hSERT binding sites, calculation based on occupancy theory)
CNCC(c1ccc2ccccc2c1)C(F)c1ccccc1 (racemic) [MCJ001-F-(±)-RR, (2R,3R/2S,3S)-3-fluoro-N-methyl-2-(naphthalen-2-yl)-3-phenylpropan-1-amine]	18 ± 3 nM	S > N > D	36 fold	2.1 ± 0.5 nM	N > S > D	140 ± 10 nM	3.9 ± 0.1 nM	greater binding at hSERT	47 ± 5 nM	90 ± 7 nM	33 ± 1 nM							
CNC[C@H](c1ccc2ccccc2c1)[C@H](OCCCCCO[C@H](c1ccccc1)[C@H](CNC)c1ccc2ccccc2c1)c1ccccc1 [MCJ001-Dimer5-SS, (2S,2′S,3S,3′S)-3,3′-(pentane-1,5-diylbis(oxy))bis(N-methyl-2-(naphthalen-2-yl)-3-phenylpropan-1-amine)]	14 ± 2 nM	D > S > N	1.4 fold	720 nM	S > N > D						52 nM	113 ± 6 nM	140 ± 30 nM	200 ± 30 nM	150 ± 10 nM			
CNC[C@H](c1ccc2ccccc2c1)[C@@H](F)c1ccccc1 [MCJ001-F-RS, (2S,3R)-3-fluoro-N-methyl-2-(naphthalen-2-yl)-3-phenylpropan-1-amine]	3.5 ± 0.9 nM	N > S > D	21 fold	4.8 nM	S = N > D	19 ± 2 nM	2.8 ± 0.3 nM	greater binding at hSERT	9 ± 1 nM	9 ± 1.5 nM	30 ± 5 nM					Enhanced binding to hDAT		
CNC[C@@H](c1ccc2ccccc2c1)[C@H](F)c1ccccc1 [MCJ001-F-SR, (2R,3S)-3-fluoro-N-methyl-2-(naphthalen-2-yl)-3-phenylpropan-1-amine]	150 nM	D > S > N	12 fold		S > N > D	36 ± 6 nM	130 ± 20 nM	much more weakly at hNET and hSERT		53 ± 12 nM				110 ± 20 nM		potently binds to hDAT, in the range of that seen with PRC200-SS	D>S>N	
CNC[C@H](c1ccc2ccccc2c1)[C@@H](N=[N+]=[N-])c1ccccc1 [MCJ001-N3-RS, (2S,3R)-3-azido-N-methyl-2-(naphthalen-2-yl)-3-phenylpropan-1-amine]	48 ± 10 nM	N > S > D	3.0 fold	24 ± 4 nM	N > S > D						64 nM	190 ± 20 nM	124 ± 9 nM	56 ± 3 nM	88 ± 10 nM			
CNC[C@@H](c1ccc2ccccc2c1)[C@H](N=[N+]=[N-])c1ccccc1 [MCJ001-N3-SR, (2R,3S)-3-azido-N-methyl-2-(naphthalen-2-yl)-3-phenylpropan-1-amine]	46 ± 6 nM	S > N > D	3.8 fold	1400 nM	N > S > D						77 nM	1440 ± 70 nM	380 ± 40 nM	250 ± 20 nM	640 ± 50 nM			
CNC[C@H](c1ccc2ccccc2c1)[C@H](OC)c1ccccc1 [MCJ001-OMe-SS, (2S,3S)-3-methoxy-N-methyl-2-(naphthalen-2-yl)-3-phenylpropan-1-amine]	12 ± 2 nM	N > S > D	29 fold	1.2 ± 0.2 nM	S > N > D	40.6 ± 0.8 nM					21 ± 3 nM		13 ± 2 nM	24 ± 2 nM	12.8 ± 0.9 nM			
CN(C)C[C@H](c1ccc2ccccc2c1)[C@H](N)c1ccccc1 [MCJ002-NH2-SS, (2S,3S)-N1,N1-dimethyl-2-(naphthalen-2-yl)-3-phenylpropane-1,3-diamine]		S > D > N	5.3 fold			4.2 ± 0.2 nM		greater binding at hSERT					2.4 ± 0.3 nM			several fold more potent binding at hDAT		92%
